Laboratory results reported in patent US20030157159A1, “Prevention and treatment of digestive tract infections” (priority 2002, published 2003).

Key:
H. pylori strain #26695 = test: bactericidal effect of selected terpenes on H. pylori viability; format: cell-based, Helicobacter pylori; design: key: *NG = no growth; **TNTC = Too Numerous To Count; details: 10^6 cfu, 24 hours
Procedure: Five terpenes (anethole, carvone, citral, geraniol and b-ionone) were used for this study. […] The H. pylori used was strain #26695 of […], this bacteria is a motile, cag A, vac A cytotoxin-positive gram negative bacteria which colonizes gnotobiotic piglets and indefinitely persists within the gastric microenvironment as a superficial infection of the gastric mucosa and mucus layer. 1) Stock solutions of each terpene with polysorbate-80 were prepared (1.8 ml terpene plus 0.2 ml polysorbate-80. […] 3) A total of 1.0×10^6 bacteria (30 ul) was added to 970 ul terpene dilutions (final volume of 1.0 ml) in loosely capped tubes and incubated for 24 hours at 37° C. with continuous mixing. […] Bacterial colony forming units (cfu) were determined visual (counting) inspection. Recovered bacteria were confirmed to be H. pylori by catalase and urease enzyme activities.

E. coli strain AW574 = test: single terpene or combination against E. coli growth (O.D.); format: cell-based; details: single terpene 2 uMol; 24 hours; compared to the control treatment
Procedure: The objective of this example was to determine an optimum terpene mixture which could have a greater biocidal effect. E. coli strain AW574 was grown in tryptone broth to an exponential growth phase (O.D. between 0.4 and 1.0 at 590 nm). One tenth of this growth was inoculated to 10 ml of tryptone broth following by the addition of individual terpenes or as indicated on table 2; then incubated for 24 hours at 35-37° C. and the O.D. determined in each tube. The concentration of terpenes was 1 or 2 uMol. Each treatment was repeated in triplicate. The results are expressed as percentage bacterial growth as compared to the control treatment. It is observed that the combination of terpenes give better biocidal effect than single terpenes, with geraniol and carvone better than b-ionone.

[1] = tested on: E. coli strains AW574 or AW405; test: Lysis of E. coli by terpenes (B-galactosidase/ONPG assay); format: cell-based
Excerpt: Lysis of the cell membrane was monitored by the determination of galactosidase activity. B-galactosidase is a well-characterized cytosolic enzyme in bacteria. This enzyme is inducible in the presence of isopropyl-1-thiogalactosidase (IPTG) and assayed colorimetricaly with substrate o-nitro-phenyl-B-D-galactoside (ONPG). ONPG is cleaved to release o-nitrophenol with peak absorbance at 420 nm. Since intact E. coli is impermeable to both ONPG and the enzyme, the cells have to be lysed prior to enzymatic assay. Therefore the ability of terpenes to lyse E. coli can be measured with this enzymatic assay and compared to known lysing agents. The procedure used was as follows: E. coli strains AW574 or AW405 were cultured overnight in 10 ml tryptone broth with […] at 35° C. Cells were allowed to growth after an absorbance equal to 0.9 was reached. Cells were harvested, washed with phosphate buffer and resuspended to an absorbance equal to 0.5. One tenth of a ml of the bacteria culture was added to 0.9 ml of buffer, warmed to 30° C. and then 80 ul of terpenes (85% terpenes and 15% polysorbate-80), 80 ul water (background) or 40 ul chloroform plus 40 ul 1% SDS in water (positive control) were added. After the addition of the lysing agents the tubes were mixed for 10 seconds and 0.2 ml of ONPG (4 mg/ml water) was added, then incubated for 5 minutes. The enzyme activity was stopped with 0.5 ml of 1 M sodium carbonate. After being centrifuged for 3 minutes at 1,500×g, supernatant was transferred to cuvettes and read at 420 nm. The relative degree of lysis caused by terpenes was calculated as follows:
100×(OD terpenes−OD water)/(OD chloroform−OD water)

E. coli = details: cited from earlier work
Traveler's Diarrhea = details: Ericsson, Charles (1998); cited from earlier work
H pylori = details: in vitro; cited from earlier work
[2] = final dilution 1:10 of stock (90% terpene plus 10% polysorbate-80)
[3] = final dilution 1:10000 of stock
[4] = final dilution 1:50000 of stock

Row | Molecule | H. pylori growth (cfu recovered) (H. pylori strain #26695; [2]) | H. pylori growth (cfu recovered) (H. pylori strain #26695; final dilution 1:50 of stock) | H. pylori growth (cfu recovered) (H. pylori strain #26695; final dilution 1:100 of stock) | H. pylori growth (cfu recovered) (H. pylori strain #26695; final dilution 1:500 of stock) | H. pylori growth (cfu recovered) (H. pylori strain #26695; final dilution 1:1000 of stock) | H. pylori growth (cfu recovered) (H. pylori strain #26695; final dilution 1:5000 of stock) | H. pylori growth (cfu recovered) (H. pylori strain #26695; [3]) | H. pylori growth (cfu recovered) (H. pylori strain #26695; [4]) | % growth (E. coli strain AW574) | further results
1 | CC=Cc1ccc(OC)cc1 [Anethole] | NG | NG | NG | NG | 10^3 cfu | 10^3 cfu | TNTC | TNTC | – | –
2 | C=C(C)C1CC=C(C)C(=O)C1 (stereo not shown) [Carvone] | NG | NG | NG | NG | NG | 10^4 cfu | TNTC | TNTC | 63.00% | Relative lysis ([1]; 404 uM): 3.2%; Relative lysis ([1]; 4,040 uM): 22%; Relative lysis ([1]; 40,400 uM): 54%
3 | CC(C)=CCCC(C)=CC=O [Citral] | NG | NG | NG | NG | NG | NG | NG | TNTC | – | concentration in growth media that reduced the concentration of E. coli (E. coli): more than 0.01%; concentration with bactericidal effect (E. coli; growth media): 0.08%
4 | CC(=O)/C=C/C1=C(C)CCCC1(C)C [b-Ionone] | NG | NG | NG | NG | NG | NG | NG | TNTC | 84.00% | Relative lysis ([1]; 0.0308 uM): 1.3%; Relative lysis ([1]; 0.308 uM): 4.78%; Relative lysis ([1]; 3.08 uM): 23%; Relative lysis ([1]; 30.8 uM): 44%; Relative lysis ([1]; 308 uM): 52%
5 | Trimethropim-sulfamethoxazole [reference compound] | – | – | – | – | – | – | – | – | – | Efficacy (Traveler's Diarrhea): 70-80% protective
6 | CC(C)=CCC/C(C)=C/CO [Geraniol] | NG | NG | NG | NG | NG | NG | 10^2 cfu | TNTC | 54.00% | concentration that inhibited the growth of H pylori (H pylori): 2 mg/lt.; Relative lysis ([1]; 3.63 uM): 2.4%; Relative lysis ([1]; 36.3 uM): 4%; Relative lysis ([1]; 363 uM): 34%; Relative lysis ([1]; 3,630 uM): 98%; Relative lysis ([1]; 36,300 uM): 96%
7 | Lactobacillus | – | – | – | – | – | – | – | – | – | Efficacy (Traveler's Diarrhea): Not proven
8 | Polysorbate-80 [reference compound] | NG* | NG | NG | 10^3 cfu | 10^4 cfu | TNTC** | TNTC | TNTC | – | Relative lysis ([1]; 80 ul Polysorbate-80): 3.2%
